Test results as given in ChEMBL document CHEMBL3046689, “Volatile aldehydes are promising broad-spectrum postharvest insecticides” (J Agric Food Chem, 2000).
Activity calls are given as the source filed them. The calls are words filed in the database; no cut-off is given here.

Legend:
[1] = test system: Persea americana; test: Phytotoxicity in Persea americana (avocado) assessed as induction of visual damage after compound application for 1 hr through two-tier reduced pressure fumigation at 30 mmHg for 0.5 hr and then 760 mmHg for 1.5 hr at 23 +/- 1 degC; type: organism-based; settings: in vivo
[2] = test system: Citrus x paradisi; test: Phytotoxicity in Citrus x paradisi (grape fruit) assessed as induction of olfactory damage after compound application for 1 hr through two-tier reduced pressure fumigation at 30 mmHg for 0.5 hr and then 760 mmHg for 1.5 hr at 23 +/- 1 degC; type: organism-based; settings: in vivo
[3] = test system: Brassica oleracea var. capitata; test: Phytotoxicity in Brassica oleracea var. capitata (cabbage) after compound application for 1 hr through two-tier reduced pressure fumigation at 30 mmHg for 0.5 hr and then 760 mmHg for 1.5 hr at 23 +/- 1 degC; type: organism-based; settings: in vivo
[4] = test system: Vitis vinifera; test: Phytotoxicity in Vitis vinifera assessed as induction of olfactory damage after compound application for 1 hr through two-tier reduced pressure fumigation at 30 mmHg for 0.5 hr and then 760 mmHg for 1.5 hr at 23 +/- 1 degC; type: organism-based; settings: in vivo
[5] = test system: Myzus persicae; test: Insecticidal activity against Myzus persicae (green peach aphid) applied through two-tier reduced pressure fumigation at 30 mmHg for 0.5 hr and then 760 mmHg for 1.5 hr at 23 +/- 1 degC; type: functional
[6] = test system: Malus domestica; test: Phytotoxicity in Malus x domestica (apple) assessed as induction of visual damage after compound application for 1 hr through two-tier reduced pressure fumigation at 30 mmHg for 0.5 hr and then 760 mmHg for 1.5 hr at 23 +/- 1 degC; type: organism-based; settings: in vivo
[7] = test system: Brassica oleracea var. italica; test: Phytotoxicity in Brassica oleracea var. italica after compound application for 1 hr through two-tier reduced pressure fumigation at 30 mmHg for 0.5 hr and then 760 mmHg for 1.5 hr at 23 +/- 1 degC; type: organism-based; settings: in vivo
[8] = test system: Malus domestica; test: Phytotoxicity in Malus x domestica (apple) assessed as induction of olfactory damage after compound application for 1 hr through two-tier reduced pressure fumigation at 30 mmHg for 0.5 hr and then 760 mmHg for 1.5 hr at 23 +/- 1 degC; type: organism-based; settings: in vivo
[9] = test system: Myzus persicae; test: Insecticidal activity against Myzus persicae (green peach aphid) infested naked lettuce applied for 1 hr through two-tier reduced pressure fumigation at 30 mmHg for 0.5 hr and then 760 mmHg for 1.5 hr at 23 +/- 1 degC measured 24 hr; type: functional, organism-based

Structure (SMILES): CCC=O [PROPIONALDEHYDE]
- Activity [1]: Non-toxic
- Activity [2]: Non-toxic
- Activity [3]: Toxic
- Activity [4]: Non-toxic
- CTP [5]: 4.2 mg/L.hr
- Activity [6]: Non-toxic
- Activity [7]: Toxic
- Activity [8]: Non-toxic
- Activity [9]: Active
